Measurements: the NIST ThermoML archive (doi:10.1016/j.jct.2005.05.020)

Assay: xn = mol fraction of the nth substance listed
Conditions: 101 kPa, Liquid

CCCCCC [hexane] + CCCCCCC
mass density [kg/m3]
Conditions | x1 = 0.1019 | x1 = 0.2003 | x1 = 0.3005 | x1 = 0.4007 | x1 = 0.5001 | x1 = 0.5984 | x1 = 0.7002 | x1 = 0.7995 | x1 = 0.8974
273.15 K | 698.37 | 696.77 | 694.27 | 692.25 | 689.57 | 687.14 | 684.81 | 682.14 | 679.66
278.15 K | 694.22 | 692.61 | 690.08 | 688.04 | 685.35 | 682.88 | 680.52 | 677.82 | 675.32
283.15 K | 690.04 | 688.42 | 685.86 | 683.8 | 681.08 | 678.58 | 676.2 | 673.47 | 670.94
288.15 K | 685.84 | 684.21 | 681.62 | 679.53 | 676.79 | 674.26 | 671.85 | 669.1 | 666.54
293.15 K | 681.62 | 679.97 | 677.36 | 675.24 | 672.47 | 669.91 | 667.47 | 664.69 | 662.1
298.15 K | 677.38 | 675.7 | 673.06 | 670.93 | 668.12 | 665.53 | 663.06 | 660.24 | 657.62
303.15 K | 673.11 | 671.42 | 668.74 | 666.58 | 663.74 | 661.12 | 658.62 | 655.77 | 653.12
308.15 K | 668.81 | 667.09 | 664.39 | 662.2 | 659.32 | 656.67 | 654.14 | 651.25 | 648.57
313.15 K | 664.47 | 662.74 | 660 | 657.78 | 654.86 | 652.19 | 649.62 | 646.69 | 643.98
318.15 K | 660.11 | 658.36 | 655.58 | 653.33 | 650.35 | 647.66 | 645.06 | 642.1 | 639.34
323.15 K | 655.71 | 653.93 | 651.12 | 648.84 | 645.81 | 643.1 | 640.45 | 637.45 | 634.65
328.15 K | 651.27 | 649.47 | 646.62 | 644.31 | 641.22 | 638.48 | 635.8 | 632.76 | 629.92
333.15 K | 646.79 | 644.97 | 642.07 | 639.73 | 636.58 | 633.82 | 631.24 | 628.01 | 625.13
338.15 K | 642.28 | 640.43 | 637.49 | 635.11 | 631.89 | – | 626.48 | 623.2 | 620.28
343.15 K | 637.71 | 635.84 | 632.85 | 630.44 | 627.14 | – | 621.67 | – | –
348.15 K | 633.1 | 631.2 | 628.16 | 625.71 | 622.33 | – | 616.8 | – | –
353.15 K | 628.43 | 626.5 | 623.42 | 620.92 | – | – | – | – | –
358.15 K | 623.71 | 621.75 | 618.61 | 616.08 | – | – | – | – | –
363.15 K | 618.94 | 616.94 | 613.75 | 611.16 | – | – | – | – | –

CCCCC [pentane] + CCCCCC
Conditions | mass density [kg/m3]
273.15 K, x1 = 0.0999 | 674.29
273.15 K, x1 = 0.1996 | 671.84
273.15 K, x1 = 0.2998 | 668.66
273.15 K, x1 = 0.3884 | 666.23
273.15 K, x1 = 0.5 | 662.72
273.15 K, x1 = 0.6 | 659.97
273.15 K, x1 = 0.7001 | 657
273.15 K, x1 = 0.8995 | 650.09
273.16 K, x1 = 0.8011 | 653.2
278.15 K, x1 = 0.0999 | 669.9
278.15 K, x1 = 0.1996 | 667.39
278.15 K, x1 = 0.2998 | 664.21
278.15 K, x1 = 0.3884 | 661.71
278.15 K, x1 = 0.5 | 658.2
278.15 K, x1 = 0.6 | 655.38
278.15 K, x1 = 0.7001 | 652.36
278.15 K, x1 = 0.8011 | 648.53
278.15 K, x1 = 0.8995 | 645.39
283.14 K, x1 = 0.3884 | 657.16
283.14 K, x1 = 0.6 | 650.74
283.14 K, x1 = 0.7001 | 647.7
283.14 K, x1 = 0.8011 | 643.81
283.14 K, x1 = 0.8995 | 640.63
283.15 K, x1 = 0.0999 | 665.46
283.15 K, x1 = 0.1996 | 662.9
283.15 K, x1 = 0.2998 | 659.71
283.15 K, x1 = 0.5 | 653.63
288.14 K, x1 = 0.1996 | 658.38
288.14 K, x1 = 0.3884 | 652.56
288.14 K, x1 = 0.6 | 646.06
288.14 K, x1 = 0.7001 | 642.98
288.14 K, x1 = 0.8995 | 635.83
288.15 K, x1 = 0.0999 | 661
288.15 K, x1 = 0.2998 | 655.18
288.15 K, x1 = 0.5 | 649.01
288.15 K, x1 = 0.8011 | 639.05
293.14 K, x1 = 0.6 | 641.34
293.14 K, x1 = 0.7001 | 638.21
293.15 K, x1 = 0.0999 | 656.49
293.15 K, x1 = 0.1996 | 653.82
293.15 K, x1 = 0.2998 | 650.6
293.15 K, x1 = 0.3884 | 647.93
293.15 K, x1 = 0.5 | 644.36
293.15 K, x1 = 0.8011 | 634.24
293.15 K, x1 = 0.8995 | 630.97
298.14 K, x1 = 0.1996 | 649.22
298.14 K, x1 = 0.3884 | 643.25
298.14 K, x1 = 0.6 | 636.57
298.14 K, x1 = 0.7001 | 633.51
298.14 K, x1 = 0.8995 | 626.07
298.15 K, x1 = 0.0999 | 651.95
298.15 K, x1 = 0.2998 | 645.98
298.15 K, x1 = 0.5 | 639.66
298.15 K, x1 = 0.8011 | 629.38
303.14 K, x1 = 0.1996 | 644.58
303.14 K, x1 = 0.3884 | 638.53
303.14 K, x1 = 0.6 | 631.74
303.14 K, x1 = 0.7001 | 628.65
303.14 K, x1 = 0.8011 | 624.47
303.15 K, x1 = 0.0999 | 647.36
303.15 K, x1 = 0.2998 | 641.31
303.15 K, x1 = 0.5 | 634.91
303.15 K, x1 = 0.8995 | 621.11
308.14 K, x1 = 0.7001 | 623.75
308.15 K, x1 = 0.0999 | 642.74
308.15 K, x1 = 0.1996 | 639.9
308.15 K, x1 = 0.2998 | 636.59
308.15 K, x1 = 0.3884 | 633.76
308.15 K, x1 = 0.5 | 630.1
308.15 K, x1 = 0.6 | 626.86
308.15 K, x1 = 0.8011 | 619.5
308.15 K, x1 = 0.8995 | 616.08
313.14 K, x1 = 0.6 | 621.92
313.14 K, x1 = 0.8011 | 614.47
313.14 K, x1 = 0.8995 | 611
313.15 K, x1 = 0.0999 | 638.06
313.15 K, x1 = 0.1996 | 635.17
313.15 K, x1 = 0.2998 | 631.82
313.15 K, x1 = 0.3884 | 628.94
313.15 K, x1 = 0.5 | 625.24
313.15 K, x1 = 0.7001 | 618.75
318.14 K, x1 = 0.3884 | 624.06
318.14 K, x1 = 0.6 | 616.92
318.14 K, x1 = 0.7001 | 613.89
318.14 K, x1 = 0.8995 | 605.86
318.15 K, x1 = 0.0999 | 633.32
318.15 K, x1 = 0.1996 | 630.38
318.15 K, x1 = 0.5 | 620.41
318.15 K, x1 = 0.8011 | 609.38
323.14 K, x1 = 0.1996 | 625.55
323.14 K, x1 = 0.5 | 615.41
323.14 K, x1 = 0.8995 | 600.65
323.15 K, x1 = 0.0999 | 628.53
323.15 K, x1 = 0.6 | 611.84
328.14 K, x1 = 0.1996 | 620.65
328.15 K, x1 = 0.0999 | 623.68
328.15 K, x1 = 0.5 | 610.35
328.15 K, x1 = 0.6 | 606.69
333.15 K, x1 = 0.0999 | 618.77
333.15 K, x1 = 0.1996 | 615.6

CCCCC [pentane] + CCCCCCC
mass density [kg/m3]
Conditions | x1 = 0.1014 | x1 = 0.2019 | x1 = 0.3011 | x1 = 0.4001 | x1 = 0.4997 | x1 = 0.5999 | x1 = 0.698 | x1 = 0.7991 | x1 = 0.8992
273.14 K | – | 691.57 | – | – | – | – | – | – | –
273.15 K | 696.24 | – | 686.91 | 682.43 | 677.18 | 671.16 | 665.42 | 659.05 | 652.37
278.15 K | 692.07 | 687.35 | 682.65 | 678.13 | 672.82 | 666.73 | 660.92 | 654.47 | 647.72
283.15 K | 687.87 | 683.1 | 678.35 | 673.78 | 668.42 | 662.25 | 656.37 | 649.85 | 643.01
288.15 K | 683.65 | 678.83 | 674.03 | 669.41 | 663.99 | 657.74 | 651.79 | 645.18 | 638.26
293.15 K | 679.4 | 674.53 | 669.67 | 665.01 | 659.51 | 653.19 | 647.17 | 640.48 | 633.46
298.15 K | 675.12 | 670.21 | 665.29 | 660.56 | 655.01 | 648.6 | 642.5 | 635.73 | 628.61
303.15 K | 670.82 | 665.85 | 660.88 | 656.08 | 650.46 | 643.97 | 637.79 | 630.93 | 623.7
308.15 K | 666.49 | 661.46 | 656.43 | 651.57 | 645.86 | 639.3 | 633.03 | 626.07 | –
313.15 K | 662.08 | 657.04 | 651.94 | 647 | 641.22 | 634.58 | 628.22 | 621.16 | –
318.15 K | 657.69 | 652.58 | 647.42 | 642.39 | 636.53 | – | 623.36 | 616.18 | –
323.15 K | 653.26 | 648.09 | 642.84 | 637.74 | 631.79 | – | 618.43 | 611.14 | –
328.15 K | 648.78 | 643.55 | 638.23 | 633.03 | 626.99 | – | – | – | –
333.15 K | 644.24 | – | 633.57 | 628.26 | 622.13 | – | – | – | –
338.15 K | 639.67 | – | – | 623.48 | 617.2 | – | – | – | –
343.15 K | 635.01 | – | – | 618.87 | – | – | – | – | –
